Experiments:
Experiment in all cases: Test C pre/postemergence
Format in all cases: in vivo
Details in all cases: Postemergence
[1] = test system: cocklebur (Xanthium strumarium)
How it was run: (§1)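 Percent control is a visual rating (0 none, 100 complete) taken against untreated plants after 12 to 14 days of greenhouse growth. Applications were made preemergence to seeded pots and postemergence to plants at the 1- to 4-leaf stage, in a non-phytotoxic surfactant-containing solvent.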

[2] = test system: common ragweed (Ambrosia elatior)
How it was run: as §1

[3] = test system: crabgrass (Digitaria sanguinalis)
How it was run: as §1

[4] = test system: giant foxtail (Setaria faberii)
How it was run: as §1

kochia (Kochia scoparia) = test system: kochia (Kochia scoparia)
How it was run: as §1

[5] = test system: morningglory (Ipomoea coccinea)
How it was run: as §1

[6] = test system: pigweed (Amaranthus retroflexus)
How it was run: as §1

[7] = test system: velvetleaf (Abutilon theophrasti)
How it was run: as §1

[8] = test system: woolly cupgrass (Eriochloa villosa)
How it was run: as §1

[9] = test system: yellow nutsedge (Cyperus esculentus)
How it was run: as §1

[10] = 62 g ai/ha, scale 0 to 100 (0 no effect, 100 complete control)
[11] = 125 g ai/ha, scale 0 to 100 (0 no effect, 100 complete control)

## COC(=O)c1nc(C2CC2)nc(N)c1I [Compound 7]
[1]; Xanthium strumarium, post-emergence, 62 g ai/ha, scale 0 to 100 (0 no effect, 100 complete control), read-out: Cocklebur plant response rating
  pest or weed control at 62 g/ha: 30%
[1]; Xanthium strumarium, post-emergence, 125 g ai/ha, scale 0 to 100 (0 no effect, 100 complete control), read-out: Cocklebur plant response rating
  pest or weed control at 125 g/ha: 30%
[1]; Xanthium strumarium, post-emergence, 250 g ai/ha, scale 0 to 100, read-out: Plant response rating, Cocklebur
  pest or weed control at 250 g/ha: 30%
[1]; Xanthium strumarium, post-emergence, 500 g ai/ha, scale 0 to 100, read-out: Plant response rating, Cocklebur
  pest or weed control at 500 g/ha: 30%
[2]; Ambrosia artemisiifolia, post-emergence, 62 g ai/ha, scale 0 to 100 (0 no effect, 100 complete control), read-out: Ragweed plant response rating
  pest or weed control at 62 g/ha: 25%
[2]; Ambrosia artemisiifolia, post-emergence, 125 g ai/ha, scale 0 to 100 (0 no effect, 100 complete control), read-out: Ragweed plant response rating
  pest or weed control at 125 g/ha: 35%
[2]; Ambrosia artemisiifolia, post-emergence, 250 g ai/ha, scale 0 to 100, read-out: Plant response rating, Ragweed
  pest or weed control at 250 g/ha: 65%
[2]; Ambrosia artemisiifolia, post-emergence, 500 g ai/ha, scale 0 to 100, read-out: Plant response rating, Ragweed
  pest or weed control at 500 g/ha: 75%
[3]; Digitaria sanguinalis, post-emergence, 62 g ai/ha, scale 0 to 100 (0 no effect, 100 complete control), read-out: Crabgrass plant response rating
  pest or weed control at 62 g/ha: 0%
[3]; Digitaria sanguinalis, post-emergence, 125 g ai/ha, scale 0 to 100 (0 no effect, 100 complete control), read-out: Crabgrass plant response rating
  pest or weed control at 125 g/ha: 0%
[3]; Digitaria sanguinalis, post-emergence, 250 g ai/ha, scale 0 to 100, read-out: Plant response rating, Crabgrass
  pest or weed control at 250 g/ha: 5%
[3]; Digitaria sanguinalis, post-emergence, 500 g ai/ha, scale 0 to 100, read-out: Plant response rating, Crabgrass
  pest or weed control at 500 g/ha: 25%
[4]; Setaria faberi, post-emergence, 125 g ai/ha, scale 0 to 100 (0 no effect, 100 complete control), read-out: Foxtail, Giant plant response rating
  pest or weed control at 125 g/ha: 0%
[4]; Setaria faberi, post-emergence, 500 g ai/ha, scale 0 to 100, read-out: Plant response rating, Foxtail, Giant
  pest or weed control at 500 g/ha: 10%
[4]; Setaria faberi, post-emergence, 62 g ai/ha, scale 0 to 100 (0 no effect, 100 complete control), read-out: Foxtail, Giant plant response rating
  pest or weed control at 62 g/ha: 0%
[4]; Setaria faberi, post-emergence, 250 g ai/ha, scale 0 to 100, read-out: Plant response rating, Foxtail, Giant
  pest or weed control at 250 g/ha: 0%
Kochia (Kochia scoparia); Bassia scoparia, post-emergence, 62 g ai/ha, scale 0 to 100 (0 no effect, 100 complete control), read-out: Kochia plant response rating
  pest or weed control at 62 g/ha: 40%
Kochia (Kochia scoparia); Bassia scoparia, post-emergence, 125 g ai/ha, scale 0 to 100 (0 no effect, 100 complete control), read-out: Kochia plant response rating
  pest or weed control at 125 g/ha: 65%
Kochia (Kochia scoparia); Bassia scoparia, post-emergence, 250 g ai/ha, scale 0 to 100, read-out: Plant response rating, Kochia
  pest or weed control at 250 g/ha: 70%
Kochia (Kochia scoparia); Bassia scoparia, post-emergence, 500 g ai/ha, scale 0 to 100, read-out: Plant response rating, Kochia
  pest or weed control at 500 g/ha: 80%
[5]; Ipomoea, post-emergence, 125 g ai/ha, scale 0 to 100 (0 no effect, 100 complete control), read-out: Morningglory plant response rating
  pest or weed control at 125 g/ha: 50%
[5]; Ipomoea, post-emergence, 250 g ai/ha, scale 0 to 100, read-out: Plant response rating, Morningglory
  pest or weed control at 250 g/ha: 55%
[5]; Ipomoea, post-emergence, 500 g ai/ha, scale 0 to 100, read-out: Plant response rating, Morningglory
  pest or weed control at 500 g/ha: 65%
[6]; Amaranthus retroflexus, post-emergence, 62 g ai/ha, scale 0 to 100 (0 no effect, 100 complete control), read-out: Pigweed plant response rating
  pest or weed control at 62 g/ha: 20%
[6]; Amaranthus retroflexus, post-emergence, 125 g ai/ha, scale 0 to 100 (0 no effect, 100 complete control), read-out: Pigweed plant response rating
  pest or weed control at 125 g/ha: 40%
[6]; Amaranthus retroflexus, post-emergence, 250 g ai/ha, scale 0 to 100, read-out: Plant response rating, Pigweed
  pest or weed control at 250 g/ha: 40%
[6]; Amaranthus retroflexus, post-emergence, 500 g ai/ha, scale 0 to 100, read-out: Plant response rating, Pigweed
  pest or weed control at 500 g/ha: 55%
[7]; Abutilon theophrasti, post-emergence, 62 g ai/ha, scale 0 to 100 (0 no effect, 100 complete control), read-out: Velvetleaf plant response rating
  pest or weed control at 62 g/ha: 0%
[7]; Abutilon theophrasti, post-emergence, 125 g ai/ha, scale 0 to 100 (0 no effect, 100 complete control), read-out: Velvetleaf plant response rating
  pest or weed control at 125 g/ha: 10%
[7]; Abutilon theophrasti, post-emergence, 250 g ai/ha, scale 0 to 100, read-out: Plant response rating, Velvetleaf
  pest or weed control at 250 g/ha: 35%
[7]; Abutilon theophrasti, post-emergence, 500 g ai/ha, scale 0 to 100, read-out: Plant response rating, Velvetleaf
  pest or weed control at 500 g/ha: 40%
[8]; Eriochloa villosa, post-emergence, 62 g ai/ha, scale 0 to 100 (0 no effect, 100 complete control), read-out: Cupgrass, Woolly plant response rating
  pest or weed control at 62 g/ha: 0%
[8]; Eriochloa villosa, post-emergence, 125 g ai/ha, scale 0 to 100 (0 no effect, 100 complete control), read-out: Cupgrass, Woolly plant response rating
  pest or weed control at 125 g/ha: 0%
[8]; Eriochloa villosa, post-emergence, 250 g ai/ha, scale 0 to 100, read-out: Plant response rating, Cupgrass, Woolly
  pest or weed control at 250 g/ha: 0%
[8]; Eriochloa villosa, post-emergence, 500 g ai/ha, scale 0 to 100, read-out: Plant response rating, Cupgrass, Woolly
  pest or weed control at 500 g/ha: 20%
[9]; Cyperus, post-emergence, 62 g ai/ha, scale 0 to 100 (0 no effect, 100 complete control), read-out: Nutsedge, Yellow plant response rating
  pest or weed control at 62 g/ha: 0%
[9]; Cyperus, post-emergence, 125 g ai/ha, scale 0 to 100 (0 no effect, 100 complete control), read-out: Nutsedge, Yellow plant response rating
  pest or weed control at 125 g/ha: 0%
[9]; Cyperus, post-emergence, 250 g ai/ha, scale 0 to 100, read-out: Plant response rating, Nutsedge, Yellow
  pest or weed control at 250 g/ha: 0%
[9]; Cyperus, post-emergence, 500 g ai/ha, scale 0 to 100, read-out: Plant response rating, Nutsedge, Yellow
  pest or weed control at 500 g/ha: 0%

## CCOC(=O)c1nc(-c2ccc(Cl)cc2)nc(N)c1Br [Compound 37]
[1]; [10]
  Cocklebur plant response rating: 0
[1]; [11]
  Cocklebur plant response rating: 95
[1]; 250 g ai/ha, scale 0 to 100
  Plant response rating, Cocklebur: 95
[1]; 500 g ai/ha, scale 0 to 100
  Plant response rating, Cocklebur: 95
[2]; [10]
  Ragweed plant response rating: 0
[2]; [11]
  Ragweed plant response rating: 80
[2]; 250 g ai/ha, scale 0 to 100
  Plant response rating, Ragweed: 90
[2]; 500 g ai/ha, scale 0 to 100
  Plant response rating, Ragweed: 95
[3]; [10]
  Crabgrass plant response rating: 0
[3]; [11]
  Crabgrass plant response rating: 15
[3]; 250 g ai/ha, scale 0 to 100
  Plant response rating, Crabgrass: 40
[3]; 500 g ai/ha, scale 0 to 100
  Plant response rating, Crabgrass: 60
[4]; [10]
  Foxtail, Giant plant response rating: 0
[4]; [11]
  Foxtail, Giant plant response rating: 0
[4]; 250 g ai/ha, scale 0 to 100
  Plant response rating, Foxtail, Giant: 40
[4]; 500 g ai/ha, scale 0 to 100
  Plant response rating, Foxtail, Giant: 45
Kochia (Kochia scoparia); [10]
  Kochia plant response rating: 0
Kochia (Kochia scoparia); [11]
  Kochia plant response rating: 90
Kochia (Kochia scoparia); 250 g ai/ha, scale 0 to 100
  Plant response rating, Kochia: 95
Kochia (Kochia scoparia); 500 g ai/ha, scale 0 to 100
  Plant response rating, Kochia: 95
[5]; [10]
  Morningglory plant response rating: 0
[5]; [11]
  Morningglory plant response rating: 65
[5]; 250 g ai/ha, scale 0 to 100
  Plant response rating, Morningglory: 80
[5]; 500 g ai/ha, scale 0 to 100
  Plant response rating, Morningglory: 95
[6]; [10]
  Pigweed plant response rating: 0
[6]; [11]
  Pigweed plant response rating: 95
[6]; 250 g ai/ha, scale 0 to 100
  Plant response rating, Pigweed: 100
[6]; 500 g ai/ha, scale 0 to 100
  Plant response rating, Pigweed: 100
[7]; [10]
  Velvetleaf plant response rating: 0
[7]; [11]
  Velvetleaf plant response rating: 85
[7]; 250 g ai/ha, scale 0 to 100
  Plant response rating, Velvetleaf: 90
[7]; 500 g ai/ha, scale 0 to 100
  Plant response rating, Velvetleaf: 95
[8]; [10]
  Cupgrass, Woolly plant response rating: 0
[8]; [11]
  Cupgrass, Woolly plant response rating: 0
[8]; 250 g ai/ha, scale 0 to 100
  Plant response rating, Cupgrass, Woolly: 0
[8]; 500 g ai/ha, scale 0 to 100
  Plant response rating, Cupgrass, Woolly: 45
[9]; [10]
  Nutsedge, Yellow plant response rating: 0
[9]; [11]
  Nutsedge, Yellow plant response rating: 0
[9]; 250 g ai/ha, scale 0 to 100
  Plant response rating, Nutsedge, Yellow: 0
[9]; 500 g ai/ha, scale 0 to 100
  Plant response rating, Nutsedge, Yellow: 20
